Values joined by “and” are separate entries in the source; they are usually repeats but may differ in a detail not shown here. Equal values may be shown once. ± gives the uncertainty stated by the source.
Columns and labels:
[1] = xn = mol fraction of the nth substance listed

C=CCO
viscosity [mPa·s]
Settings	298.15 K	303.15 K	313.15 K	318.15 K	323.15 K
101 kPa	–	1.122 ± 0.01	0.9208 ± 0.0088	0.8419 ± 0.0081	0.7703 ± 0.0075
101.33 kPa	1.232 ± 0.031	–	–	–	–

CC(=O)[O-].CC[n+]1ccn(C)c1
viscosity
Settings	293.15 K	303.15 K	308.15 K	313.15 K	318.15 K	323.15 K
100 kPa	203 ± 11 mPa·s	89.44 ± 4.3 mPa·s	–	53.45 ± 2.5 mPa·s and 61.13 ± 2 mPa·s	–	34.58 ± 1.6 mPa·s
101 kPa	197 ± 12 mPa·s	93.62 ± 6.1 mPa·s and 95.11 ± 2.8 mPa·s and 102.4 ± 6.3 mPa·s	71.26 ± 4.6 mPa·s	57.72 ± 2.5 mPa·s and 55.52 ± 3.6 mPa·s and 60.42 ± 3.6 mPa·s	44.15 ± 2.9 mPa·s	35.74 ± 2.3 mPa·s and 36.27 ± 0.97 mPa·s and 38.97 ± 2.4 mPa·s

CC(=O)[O-].C[NH+]1C=CN=C1
Settings	viscosity [mPa·s]
298.15 K, 100 kPa	6.22 ± 0.14

CC(C)C#N
101 kPa
Settings	viscosity
303.15 K	0.461 ± 0.008 mPa·s
308.15 K	0.434 ± 0.008 mPa·s and 0.433 ± 0.008 mPa·s

CCCC(O)CC (centres undefined)
Settings	viscosity
298.15 K, 101.33 kPa	4.34 ± 0.04 mPa·s and 4.34 ± 0.035 mPa·s

CCCCCCCCCCC
viscosity
Settings	293.15 K	298.15 K	303.15 K	308.15 K	313.15 K	318.15 K	323.15 K
100 kPa	1.187 ± 0.048 mPa·s and 1.155 ± 0.014 mPa·s	1.074 ± 0.023 mPa·s	1.009 ± 0.041 mPa·s and 0.993 ± 0.021 mPa·s and 0.983 ± 0.012 mPa·s	0.935 ± 0.038 mPa·s and 0.923 ± 0.02 mPa·s and 0.912 ± 0.011 mPa·s	0.869 ± 0.035 mPa·s and 0.861 ± 0.018 mPa·s and 0.849 ± 0.011 mPa·s	0.812 ± 0.033 mPa·s and 0.806 ± 0.017 mPa·s and 0.792 ± 0.01 mPa·s	0.761 ± 0.031 mPa·s and 0.756 ± 0.016 mPa·s and 0.742 ± 0.009 mPa·s
101 kPa	–	1.075 ± 0.013 mPa·s	–	0.9373 ± 0.012 mPa·s	–	0.7937 ± 0.01 mPa·s	–
101.33 kPa	–	1.084 ± 0.027 mPa·s and 1.084 ± 0.013 mPa·s	–	–	–	–	–

CCOC(=O)CCC(=O)OCC
101.33 kPa
Settings	viscosity [mPa·s]
298.15 K	2.466 ± 0.03
303.15 K	2.196 ± 0.027
308.15 K	1.973 ± 0.024
313.15 K	1.779 ± 0.022
318.15 K	1.615 ± 0.02

CCn1cc[n+](C)c1.[Cl][Al-]([Cl])([Cl])[Cl+][Al-]([Cl])([Cl])[Cl]
100 kPa
Settings	viscosity [mPa·s]
293.15 K	16.11 ± 0.15
303.15 K	12.41 ± 0.11
313.15 K	9.79 ± 0.088
323.15 K	7.943 ± 0.072

CN1CCC[C@H]1c1cccnc1
viscosity
Settings	298.15 K	303.15 K	308.15 K	318.05 K	323.15 K
100 kPa	–	3.6 ± 0.1 mPa·s	–	2.5 ± 0.1 mPa·s	2.195 ± 0.046 mPa·s
101 kPa	3.894 ± 0.1 mPa·s (2×) and 3.894 ± 0.14 mPa·s (2×) and 3.894 ± 0.05 mPa·s	–	3.156 ± 0.083 mPa·s and 3.156 ± 0.11 mPa·s	–	–
101.33 kPa	3.894 ± 0.039 mPa·s (2×) and 3.891 ± 0.039 mPa·s	–	3.156 ± 0.032 mPa·s	–	2.038 ± 0.02 mPa·s

COCC(C)OCC(C)O (centres undefined)
101.33 kPa
Settings	viscosity [mPa·s]
298.15 K	3.691 ± 0.053
308.15 K	2.765 ± 0.04
318.15 K	2.147 ± 0.032

N#C[C-](C#N)C#N.OCC[n+]1ccccc1
101 kPa
Settings	viscosity [mPa·s]
293.15 K	136.6 ± 14
298.15 K	97.48 ± 10
303.15 K	71.78 ± 7.3
308.15 K	54.57 ± 5.5
313.15 K	42.31 ± 4.3
318.15 K	33.96 ± 3.4
323.15 K	27.78 ± 2.8

NC=O
viscosity
Settings	293.15 K	298.15 K	303.15 K	308 K	308.15 K	313 K	313.15 K	318.15 K	323.15 K
100 kPa	3.734 ± 0.75 mPa·s	3.34 ± 0.07 mPa·s	2.964 ± 0.59 mPa·s and 2.874 ± 0.066 mPa·s	–	2.612 ± 0.06 mPa·s	–	2.351 ± 0.054 mPa·s	–	–
101 kPa	3.656 ± 0.11 mPa·s and 3.792 ± 0.17 mPa·s	–	–	2.648 mPa·s	–	2.273 ± 0.35 mPa·s	–	–	2.01 ± 0.05 mPa·s and 1.905 ± 0.019 mPa·s and 1.966 ± 0.091 mPa·s
101.3 kPa	–	3.393 ± 0.031 mPa·s	2.8 ± 0.1 mPa·s	–	2.5 ± 0.1 mPa·s	–	2.2 ± 0.1 mPa·s	–	1.6 ± 0.1 mPa·s
101.33 kPa	–	3.217 ± 0.018 mPa·s	2.802 ± 0.025 mPa·s and 2.84 ± 0.14 mPa·s	–	2.498 ± 0.022 mPa·s and 2.59 ± 0.13 mPa·s	–	2.243 ± 0.02 mPa·s	2.032 ± 0.018 mPa·s	1.846 ± 0.017 mPa·s

OCCCO
viscosity
Settings	293.15 K	298.15 K	303.15 K	308.15 K	313.15 K	318.15 K	323.15 K
100 kPa	54.53 ± 11 mPa·s (2×) and 53.1 ± 11 mPa·s and 52.75 ± 0.55 mPa·s	42.89 ± 8.6 mPa·s (2×) and 41.2 ± 8.3 mPa·s	34.62 ± 6.9 mPa·s (2×) and 33.4 ± 6.7 mPa·s and 32.51 ± 0.53 mPa·s	27.06 ± 0.44 mPa·s	21.85 ± 0.49 mPa·s	19.93 ± 0.32 mPa·s	–
101 kPa	–	42.1 ± 0.3 mPa·s and 42.06 ± 0.37 mPa·s	33.7 ± 0.2 mPa·s	–	22.1 ± 0.2 mPa·s and 20.29 ± 1.2 mPa·s	18.8 ± 0.1 mPa·s and 16.88 ± 0.99 mPa·s	14.16 ± 0.84 mPa·s
101.3 kPa	–	41.77 ± 1.8 mPa·s	33.35 ± 1.4 mPa·s	–	22.39 ± 0.94 mPa·s	18.61 ± 0.78 mPa·s	15.66 ± 0.66 mPa·s

OCCCl
viscosity
Settings	293.15 K	298.15 K	303.15 K	308.15 K	313.15 K
100 kPa	–	–	–	2.234 ± 0.14 mPa·s	1.882 ± 0.11 mPa·s
101.3 kPa	–	2.973 ± 0.036 mPa·s	2.611 ± 0.032 mPa·s	–	–
101.33 kPa	3.588 ± 0.032 mPa·s	2.81 ± 0.063 mPa·s and 2.985 ± 0.022 mPa·s	2.624 ± 0.53 mPa·s and 2.448 ± 0.056 mPa·s	2.15 ± 0.049 mPa·s	–

C=CCO + O
[1]
Settings	viscosity [mPa·s]
298.15 K, 101.33 kPa, x1 = 0.04829	1.349 ± 0.034
298.15 K, 101.33 kPa, x1 = 0.09818	1.682 ± 0.043
298.15 K, 101.33 kPa, x1 = 0.1362	1.789 ± 0.045
298.15 K, 101.33 kPa, x1 = 0.146	1.846 ± 0.047
298.15 K, 101.33 kPa, x1 = 0.2038	1.888 ± 0.048
298.15 K, 101.33 kPa, x1 = 0.2149	1.895 ± 0.048
298.15 K, 101.33 kPa, x1 = 0.2178	1.887 ± 0.048
298.15 K, 101.33 kPa, x1 = 0.2213	1.892 ± 0.048
298.15 K, 101.33 kPa, x1 = 0.2883	1.891 ± 0.048
298.15 K, 101.33 kPa, x1 = 0.3655	1.796 ± 0.045
298.15 K, 101.33 kPa, x1 = 0.4148	1.75 ± 0.044
298.15 K, 101.33 kPa, x1 = 0.6057	1.537 ± 0.039
303.15 K, 101 kPa, x1 = 0.1	1.415 ± 0.013
303.15 K, 101 kPa, x1 = 0.199	1.604 ± 0.015
303.15 K, 101 kPa, x1 = 0.299	1.603 ± 0.015
303.15 K, 101 kPa, x1 = 0.4	1.531 ± 0.014
303.15 K, 101 kPa, x1 = 0.5	1.44 ± 0.013
303.15 K, 101 kPa, x1 = 0.6	1.369 ± 0.013
303.15 K, 101 kPa, x1 = 0.696	1.297 ± 0.012
303.15 K, 101 kPa, x1 = 0.795	1.233 ± 0.011
303.15 K, 101 kPa, x1 = 0.896	1.176 ± 0.011
313.15 K, 101 kPa, x1 = 0.1	1.082 ± 0.01
313.15 K, 101 kPa, x1 = 0.199	1.23 ± 0.012
313.15 K, 101 kPa, x1 = 0.299	1.238 ± 0.012
313.15 K, 101 kPa, x1 = 0.4	1.202 ± 0.011
313.15 K, 101 kPa, x1 = 0.5	1.143 ± 0.011
313.15 K, 101 kPa, x1 = 0.6	1.096 ± 0.01
313.15 K, 101 kPa, x1 = 0.696	1.045 ± 0.0099
313.15 K, 101 kPa, x1 = 0.795	1.002 ± 0.0096
313.15 K, 101 kPa, x1 = 0.896	0.9616 ± 0.0092
318.15 K, 101 kPa, x1 = 0.1	0.9613 ± 0.0091
318.15 K, 101 kPa, x1 = 0.199	1.09 ± 0.01
318.15 K, 101 kPa, x1 = 0.299	1.103 ± 0.01
318.15 K, 101 kPa, x1 = 0.4	1.072 ± 0.01
318.15 K, 101 kPa, x1 = 0.5	1.031 ± 0.0097
318.15 K, 101 kPa, x1 = 0.6	0.991 ± 0.0094
318.15 K, 101 kPa, x1 = 0.696	0.9463 ± 0.009
318.15 K, 101 kPa, x1 = 0.795	0.9099 ± 0.0087
318.15 K, 101 kPa, x1 = 0.896	0.876 ± 0.0084
323.15 K, 101 kPa, x1 = 0.1	0.8601 ± 0.0083
323.15 K, 101 kPa, x1 = 0.199	0.9754 ± 0.0093
323.15 K, 101 kPa, x1 = 0.299	0.9907 ± 0.0094
323.15 K, 101 kPa, x1 = 0.4	0.9622 ± 0.0091
323.15 K, 101 kPa, x1 = 0.5	0.9263 ± 0.0088
323.15 K, 101 kPa, x1 = 0.6	0.8973 ± 0.0086
323.15 K, 101 kPa, x1 = 0.696	0.8586 ± 0.0082
323.15 K, 101 kPa, x1 = 0.795	0.8284 ± 0.008
323.15 K, 101 kPa, x1 = 0.896	0.8008 ± 0.0077
